One compound from patent US20240050406A1, “COMPOSITION COMPRISING OXIRACETAM FOR PREVENTING OR TREATING MUSCULAR DISEASE” (KSB TUGEN INC., priority 2021, published 2024) can be followed below.

The test system of assay [1] is dexamethasone-induced muscular atrophy animal model. In words: Dexamethasone-induced muscular atrophy animal model (Experimental Example 1). The format is in vivo, ICR mice. The settings on record: compared to dexamethasone-treated group (excipient). From the text:
1-1. Preparation of experimental animals and samples For an experimental group in the present invention, oxiracetam
having a structure of Formula 1 was purchased from Tokyo Chemical Industry (Japan; Product No. 00398, CAS RN:62613-82-5, purity: 96%) and used. As experimental animals, 7-week-old male ICR mice were
purchased and used. Until the day of the experiment, general feed (EEGJ30060: Cargill Agri Purina, Seongnam, Korea) and water were sufficiently supplied to the experimental animals, and the animals were acclimated for 1 week under an environment of a temperature of 23±2° C., a humidity of 55±10%, and a light-dark cycle of 12 hours-12 hours and used in the experiment.
After the acclimation period for the experimental animals, to create a muscular atrophy model, the mice were randomly divided into groups of 10 animals, such as a normal group (n=10), a dexamethasone-treated group (n=10), and an oxiracetam-administered group (n=10). The groups except for the normal group were intraperitoneally injected with dexamethasone at a dose of 10 mg/kg from day 7 to day 21 for 14 days. In the case of the oxiracetam-administered group, 7 days before the intraperitoneal administration of dexamethasone, oxiracetam was orally administered using a Zonde needle at a dose of 30 mg/kg/day once a day for 21 days. During the same period, the normal group was administered no drug, and 100 μL of normal saline was orally administered at a time.
(§1) The lean body mass for the gastrocnemius muscle (GS) and tibialis anterior (TA) for each group was measured every 7 days. Specifically, animal models of each group were anesthetized using 3% isoflurane, fixed to a photographing bed, and then photographed. The respiration rates and temperatures of the animal models during photographing were measured using an animal monitoring system (SA Instruments, USA).
(§2) The whole body of the animal model was photographed through dual energy X-ray absorptiometry (DEXA) using iNSiGHT VET DXA (Osteosys, KR), and the lean body mass of each of the gastrocnemius muscle (GS) and the tibialis anterior (TA) was measured and calculated from the two-dimensional images of the gastrocnemius muscle (GS) and the tibialis anterior (TA) by a program using the region of interest (ROI).
To measure grip strength, a grip strength test was performed. […] The grip strength was measured once every 2 days and 11 times for each mouse.
Tibialis anterior diameters (T1) were measured from two-dimensional images captured by dual-energy X-ray absorptiometry (DEXA) for each group and compared.
First, the experimental animals in each group were acclimatized to a treadmill machine twice before measurement (1st round: inclination 10°, 10 minutes at 5 m/min and 10 minutes at 10 m/min; 2n d round: inclination 10°, 5 minutes at 5 m/min and 15 minutes at 10 m/min). On the day of the experiment, the experimental animals were allowed to run for 20 minutes at an initial speed of 10 m/min at an inclination of 10°, and then the speed was increased by 2 m/min every 2 minutes, and then the running distance and time were measured with the end point when the experimental animal stayed for 10 seconds without running.
(§3) Statistical processing was performed using GraphPad Prism (GraphPad Software Inc., San Diego, CA, USA). The results of each repeated experiment were expressed as mean±standard error of mean, and analyzed using the analysis of variance (Tukey's test), and statistical significance was acknowledged when the P-value was 0.05 or less.

Assay [2] concerns model of sarcopenia caused by aging. The assay can be described thus: Aging animal model, 24-month-old mice, oxiracetam per concentration (Experimental Example 3). Format: in vivo, C57BL/6J mice.
Text: For an experimental group in the present invention, oxiracetam having a structure of Formula 1 was purchased from Tokyo Chemical Industry (Japan; Product No. 00398, CAS RN:62613-82-5, purity: 96%) and used.
As a model of sarcopenia caused by aging, 24-month-old male C57BL/6J mice were used. Until the day of the experiment, general feed (EEGJ30060: Cargill Agri Purina, Seongnam, Korea) and water were sufficiently supplied to the experimental animals, and the animals were acclimated for 1 week under an environment of a temperature of 23±2° C., a humidity of 55±10%, and a light-dark cycle of 12 hours-12 hours and used in the experiment.
The animals were randomly divided into groups of 10 animals, such as a control (vehicle, n=10), and 42, 83, 167, 333 mg/kg/day oxiracetam-administered groups (n=10 per concentration). To the oxiracetam-administered group, oxiracetam was orally administered using a Zonde needle for 93 days once a day at a dose of 42, 83, 167, or 333 mg/kg/day. During the same period, no drug was administered to the control group, and 100 μL of normal saline was orally administered at one time.
To measure grip strength, a grip strength test was performed. The maximum force presented when the forelimbs of an animal model of each group could no longer hold the rod by pulling the tail horizontally while holding the tail of the animal model and holding the rod of a device with both front paws was considered to be grip strength (N). The grip strength was measured once every 3 days, and after repeating five measurements at one time, the average value was shown. Grip strength adaptation training was performed at least three times before drug administration.
as §1, §2, §3

The mark [3] stands for this setting: oxiracetam 30 mg/kg/day oral 21 days + dexamethasone, DEXA.
[4] abbreviates: Oxi 42, 83, 167 and 333 mg/kg/day, DEXA every 7 days, compared to control.
The mark [5] stands for this setting: Oxi 333 group (333 mg/kg/day), among dose groups.

Molecules are shown by their SMILES.

Turning to `NC(=O)CN1CC(O)CC1=O` (racemic) [oxiracetam, (RS)-2-(4-hydroxy-2-oxopyrrolidin-1-yl)acetamide], the “tibialis anterior (TA) diameter (T1)” value in assay [1] (oxiracetam 30 mg/kg/day oral 21 days + dexamethasone 10 mg/kg i.p. day 7-21, DEXA) was “significantly increased”. Moreover, the results for the “lean body mass of the gastrocnemius muscle (GS)” value in assay [1] (setting [3]), in assay [2] (setting [4]) and in assay [2] (setting [5]) were “the decrease was significantly suppressed”, “rather significantly increased” and “greatest increase”, respectively. In addition, the “lean body mass of the tibialis anterior (TA)” value in assay [1] (setting [3]) was “the decrease was significantly suppressed”; in assay [2] (setting [4]) it was “rather significantly increased”; in assay [2] (setting [5]), “greatest increase”. For the same compound, in assay [1] (oxiracetam 30 mg/kg/day oral 21 days + dexamethasone), the grip strength result is given as “significantly increased”. The “exercise stress test (treadmill): athletic ability” value in assay [1] (oxiracetam 30 mg/kg/day oral + dexamethasone) is “significant improvement”. Also, the “dose dependence of the effect on grip strength” value in assay [2] (42-333 mg/kg/day oral 93 days) is given as “increases in a concentration-dependent manner”. Further, the “change in grip strength (decrease in grip strength)” value in assay [2] (Oxi 42, 83, 167 and 333 mg/kg/day oral 93 days, versus control (vehicle)) is “significantly inhibited and rather increased”.
